Results taken from ChEMBL document CHEMBL1152206, “Vasodilatation effect of farnesylacetones, active constituents of Sargassum siliquastrum, on the basilar and carotid arteries of rabbits” (Bioorg Med Chem Lett, 2008).

Tests used:
[1] = Vasorelaxant activity against depolarization-induced carotid artery constriction in white rabbit; type: functional, tissue-based, Oryctolagus cuniculus
[2] = Vasorelaxant activity against depolarization-induced basilar artery constriction in white rabbit; type: functional, tissue-based, Oryctolagus cuniculus

With `CC(=O)CC/C=C(\C)CCC/C(C)=C/C(=O)CC(C)C` the EC50 [1] was 13.7 µM and the EC50 [2] was 1.22 µM.
In the case of `CC(=O)CC/C=C(\C)CCC/C(C)=C\C(=O)CC(C)C`, the EC50 [1] is reported as 14.5 µM and the EC50 [2] is reported as 3.72 µM.
